Several values for one entry are separate records, joined by “and”; a condition that tells them apart may be missing. Equal entries are not always repeated.
Columns and labels:
[1] = in vivo; cited from earlier work
[2] = Dose-response test of 1,25-(OH)2D3, intravaginal vs intravenous: 1,25-(OH)2D3 in plasma and bioavailability (Example 3); format: in vivo, cow; settings: for concentration at 0 h: read-out: 1,25-(OH)2D3 level in plasma
Method: (§1) Hereinafter, the present invention will further be described with reference to Examples and Comparative Example. However, the present invention is not intended to be limited to them by any means. In the examples described below, a 1,25-(OH)2D3 concentration in plasma was determined using a radioimmunoassay kit (1,25-(OH)2D RIA kit, Immunodiagnostic Systems Limited, UK). The Ca concentrations, inorganic phosphorus (iP) concentrations, and magnesium (Mg) concentrations in plasma and urine were determined by orthocresolphthalein complexone (O-CPC), molybdenum (Mo), and xylidyl blue methods, respectively. A creatinine concentration in urine was determined by a Jaffe method. Calcium (Ca), inorganic phosphorus (iP), and magnesium (Mg) concentrations in urine were indicated in the ratios relative to creatinine (Cre) (Ca/Cre, iP/Cre, and Mg/Cre, respectively).
The dose-response test of 1,25-(OH)2D3 by an intravaginal administration route was performed with five 3 to 9-year-old ovariectomized Holstein cows having body weights of 616 to 804 kg as test animals.
The cows were hitched to a partition after and provided with 5.3 kg of timothy hay, 0.18 kg of alfalfa hay, 0.71 kg of beet pulp pellet, and 1.7 kg of commercially-available grain mix on a daily basis. The cows were measured on a DM basis and freely provided with water. A daily mineral intake was set to 48.4 g for calcium, 20.2 g of inorganic phosphorus, and 12.7 g for magnesium, which sufficiently exceeded the NRC recommendation.
To the five cows, 1,25-(OH)2D3 was respectively administered at 0.125, 0.25, 0.5, and 1.0 μg/kg (by body weight) as an intravaginal dose level and 1.0 μg/kg (by body weight) as an intravenous injection dose level at an interval of 2 weeks or more according to a 5×5 Latin square design.
The 1,25-(OH)2D3 (manufactured by Mercian Corporation) used was in the form of crystalline powder, which was dissolved in 99% ethanol at 200 μg/mL and cryopreserved at −20° C. until use.
A drug composed of 5 mL of 20% ethanol solution containing 1,25-(OH)2D3 at 0.125, 0.25, 0.5, or 1.0 μg/kg (by body weight) was administered to a vaginal lumen using a Split Universal Sheath (IMV Int. CO., France) by a rectovaginal cavity method. The vulva was then bonded with an adhesive in order to prevent the 1,25-(OH)2D3 solution from being unintentionally excreted from the vaginal lumen. Intravenous administration was performed using a cannula (14-ga cannula for animals, manufactured by Nipro Medical Industries Ltd.) mounted in advance for the collection of a blood sample.
A heparinized blood sample was collected through the cannula immediately before the administration of 1,25-(OH)2D3 (0 hour) and at 2, 4, 6, 12, 24, 48, 72, 96, and 120 hours after administration.
Next, the blood was immediately centrifuged, and 1,25-(OH)2D3, calcium, inorganic phosphorus, and magnesium concentrations in plasma were determined.
It is noted that the bioavailability was determined by comparing an area under the plasma concentration-time curve (AUC) between the cow to which 1,25-(OH)2D3 was intravaginally administered at 1.0 μg/kg (by body weight) and the cow to which the same amount of 1,25-(OH)2D3 was intravenously administered, and a AUC ratio between intravaginal administration and intravenous administration was indicated by percentage.

[3] = Intravaginal 1,25-(OH)2D3 in raised cows: mineral (Ca, iP, Mg) concentrations in plasma (Example 2); format: in vivo, cow
Method: as §1
(§2) For confirming the absorption in the vagina of 1,25-(OH)2D3 administered to the vaginal cavities of cows, biochemical changes of 1,25-(OH)2D3 and minerals in blood were observed after the intravaginal administration of 1,25-(OH)2D3 to cows.
(§3) Six Holstein cows (3 to 6 months olds, 97 to 118 kg in body weights) that were clinically healthy were raised and domesticated for at least 1 week in the same fence by providing them with feed (1.56 kg of grass, 0.55 kg of formula feed, and 1.44 kg of alfalfahey cube in dried forms) having a daily mineral intake of 21 g of Ca, 13 g of P, and 4 g of Mg that satisfies requirements stipulated by NRC (National Research Council) on a daily basis and free water drinking.
(§4) To each of five of the cows, 1,25-(OH)2D3 (crystal manufactured by Mercian Corporation dissolved in 99% ethanol to bring its concentration to 1 mg/mL and cryopreserved at −20° C. until just before use) was intravaginally administered at 1 μg per kg of body weight.
Intravaginal administration was performed using a 14-gauge, 64 mm-long cannula with an indwelling needle for injection (Surflo, Terumo Co. Ltd., Tokyo) and a plastic pump (Top Plastic Syringe, Top Surgical Taiwan Corporation, Taiwan).
To the other cow, 3.0 mL of 99% ethanol was administered as a control.
A heparinized blood sample was collected from a jugular vein immediately before administration (0 hour) and at 2, 6, 12, 24, 48, 72, and 96 hours after administration.
The biochemical value of blood was indicated as a means±standard deviation. For observing the effect of the intravaginal administration of 1,25-(OH)2D3, repeated measures analysis of variance was used. When the effect was significant, a statistical test was conducted by the Dunnett's multiple comparison between the value at 0 hour and each value after administration. The significant difference was set to P<0.05.

[4] = Intravaginal 1,25-(OH)2D3 in raised cows: 1,25-(OH)2D3 concentration in plasma, RIA (Example 2); format: in vivo, cow
Method: as §1, §2, §3, §4
Intravaginal administration was performed using a 14-gauge, 64 mm-long cannula with an indwelling needle for injection (Surflo, Terumo Co. Ltd., Tokyo) and a plastic pump (Top Plastic Syringe, Top Surgical Taiwan Corporation, Taiwan). […]

[5] = 0 hour, intravaginal 1 μg/kg, n=5

C=C1/C(=C\C=C2/CCC[C@]3(C)[C@@H]([C@H](C)CCCC(C)(C)O)CC[C@@H]23)C[C@@H](O)C[C@@H]1O [1,25-(OH)2D3, 1,25-dihydroxyvitamin D3]
bioavailability of 1,25-(OH)2D3 [1]: 62% and 67% | 1,25-(OH)2D3 level in plasma, peak ([2]; 2 hours after intravaginal 0.125 μg/kg): 2219.3 ± 812.0 pg/mL | 1,25-(OH)2D3 level in plasma, peak ([2]; 2 hours after intravaginal 0.25 μg/kg): 3448.7 ± 737.9 pg/mL | 1,25-(OH)2D3 level in plasma, peak ([2]; 2 hours after intravaginal 0.5 μg/kg): 6388.5 ± 1127.4 pg/mL | 1,25-(OH)2D3 level in plasma, peak ([2]; 2 hours after intravaginal 1.0 μg/kg): 12315.7 ± 2288.3 pg/mL | bioavailability ([2]; female, Holstein, bovine, plasma, other: intravaginal, 1 μg/kg, intravaginal vs intravenous, ovariectomized cows, read-out: bioavailability, share of 1,25-(OH)2D3 administered to the vaginal lumen entering the circulatory system): ~93% | concentration at 0 h ([2]; female, Holstein, bovine, plasma, other: intravaginal, intravaginal 0.125 μg/kg, ovariectomized cows): 7.4 ± 5.3 pg/mL | concentration at 0 h ([2]; female, Holstein, bovine, plasma, other: intravaginal, intravaginal 0.25 μg/kg): 6.5 ± 1.3 pg/mL | concentration at 0 h ([2]; female, Holstein, bovine, plasma, other: intravaginal, intravaginal 0.5 μg/kg): 8.7 ± 5.6 pg/mL | concentration at 0 h ([2]; female, Holstein, bovine, plasma, other: intravaginal, intravaginal 1.0 μg/kg): 6.6 ± 1.6 pg/mL | individual bioavailability (AUC ratio intravaginal/intravenous) ([2]; intravaginal 1.0 μg/kg vs intravenous 1.0 μg/kg, one value per each of the five cows): 71.1% and 124.2% and 113.3% and 90.0% and 66.5% | time of peak 1,25-(OH)2D3 level in plasma after administration ([2]; intravaginal 0.125, 0.25, 0.5 and 1.0 μg/kg): 2 h | dose dependence of absorption from the vaginal wall ([2]; intravaginal, four doses 0.125-1.0 μg/kg): absorbed from the vaginal wall proportionately with a dose | Mg in plasma [3, 5]: 2.1 ± 0.1 mg/dL | iP in plasma [3, 5]: 7.3 ± 0.5 mg/dL | iP in plasma ([3]; 6 hours after intravaginal 1 μg/kg, P<0.05 vs 0 hour): 8.1 ± 0.8 mg/dL | iP in plasma ([3]; 24 hours (start of 24 to 96 hours) after intravaginal 1 μg/kg, P<0.01): 9.1 ± 0.7 mg/dL | Mg in plasma ([3]; 24 hours after intravaginal 1 μg/kg, P<0.01 vs 0 hour): 1.8 ± 0.1 mg/dL | Ca concentration in plasma, maximum value ([3]; 24 hours after intravaginal 1 μg/kg, n=5, significantly (P<0.01) high at 12 to 72 hours): 11.96 ± 0.7 mg/dL | Mg in plasma ([3]; 48 hours after intravaginal 1 μg/kg, P<0.01 vs 0 hour): 1.8 ± 0.1 mg/dL | iP in plasma ([3]; 96 hours (end of 24 to 96 hours) after intravaginal 1 μg/kg, P<0.01): 8.6 ± 0.6 mg/dL | Ca concentration in plasma ([3]; before administration, intravaginal 1 μg/kg, n=5): 10.4 ± 0.4 mg/dL | concentration at 6 h ([4]; female, Holstein, bovine, plasma, other: intravaginal, 6 hours after intravaginal 1 μg/kg, n=5, p<0.01 vs 0 hour): 1970 ± 1140 pg/mL | concentration at 0 h ([4]; female, Holstein, bovine, plasma, other: intravaginal, before administration (0 hour), intravaginal 1 μg/kg, n=5 raised cows, mean±SD): 88.3 ± 20.3 pg/mL | absorption from the vaginal wall of a cow ([4]; intravaginal 1 μg/kg, sudden rise in plasma at 2 hours): confirmed
